Data: US7132438B2, “Benzimidazole derivatives” (priority 2001, dated 2006)
Like-named read-outs stand apart in the source and are kept apart here.

Legend:
[1] = target: T1, IRAK-4 (Homo sapiens, UniProt Q9NWZ3); assay: Enzymatic inhibition assay, IRAK-4 kinase activity (chemiluminescent ELISA); assay type: biochemical
T1 construct: Recombinant, full-length IRAK-1 or IRAK-4 enzyme (baculovirus expression system) was added; His (N); made in house
T1 sequence (Q9NWZ3 1-460): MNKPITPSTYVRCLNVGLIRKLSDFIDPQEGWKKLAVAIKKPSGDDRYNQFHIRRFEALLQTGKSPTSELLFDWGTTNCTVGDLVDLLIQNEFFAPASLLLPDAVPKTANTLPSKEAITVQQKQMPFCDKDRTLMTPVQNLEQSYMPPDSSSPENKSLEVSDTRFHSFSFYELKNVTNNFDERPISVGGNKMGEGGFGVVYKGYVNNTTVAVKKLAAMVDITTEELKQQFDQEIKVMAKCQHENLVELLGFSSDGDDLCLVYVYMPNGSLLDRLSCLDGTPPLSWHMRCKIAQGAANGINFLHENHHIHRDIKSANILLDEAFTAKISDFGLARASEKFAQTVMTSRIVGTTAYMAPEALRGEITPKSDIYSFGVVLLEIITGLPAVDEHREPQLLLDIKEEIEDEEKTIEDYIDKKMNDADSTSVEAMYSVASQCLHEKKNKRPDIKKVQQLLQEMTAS
Procedure: Enzymatic inhibition assay. This example provides a method that is useful for evaluating test compounds for inhibition of IRAK-1 or IRAK-4 kinase activity.
(§1) 96-well polystyrene microtiter plates were coated with neutravidin for IRAK-1 or streptavidin for IRAK-4 ([…] in PBS, overnight at 4° C.). The coating solution was removed and in 80 μL/well a kinase reaction mixture was added (for IRAK-1: 20 mM Tris-HCl, pH 7.5, 10 mM MgCl2, 2 mM EGTA, 1 mM NaF, 0.5 mM benzamidine, 1 mM DTT, 3 μM ATP, […] of biotinylated substrate peptide bio-[…], sequence derived from IRAK-1; for IRAK-4: 20 mM Tris-HCl, pH 7.5, 10 mM MgCl2, 2 mM EGTA, 1 mM NaF, 0.5 mM benzamidine, 1 mM DTT, 10% glycerol, 10 μM ATP, […] of biotinylated substrate peptide bio-[…], sequence derived from GFAP).
(§2) At 10 μL/well in DMSO test compounds were added covering a final concentration range from 1 nM to […]. Recombinant, full-length IRAK-1 or IRAK-4 enzyme (baculovirus expression system) was added in 10 μL buffer containing Tris-HCl pH 7.5 20 mM, EGTA 2 mM, benzamidine 0.5 mM, DTT 1 mM, MgCl2 10 mM and glycerol 10% (IRAK-4 only) to initiate the kinase reaction. The reaction mixture was incubated at room temperature for 60 min on a shaker. During this incubation the substrate peptide is being phosphorylated by the kinase and gets captured onto the surface of the wells by neutravidin or streptavidin, respectively. The plate was washed 3× with 150 μL distilled water to terminate the reaction and remove components of the reaction mixture. A conventional chemiluminescent ELISA detection technique was initiated by adding 100 μL/well primary antibody (monoclonal antibody YC10, generated to recognize the phosphorylated epitope in the substrate peptide; used at 1:20,000 dilution for IRAK-1 and 1:10,000 dilution for IRAK-4) premixed with horseradish peroxidase (HRP) conjugated anti-mouse secondary antibody (commercially available from several sources; used at 1:10,000 dilution) in PBS containing 2% BSA. The solution was incubated at room temperature for 40 min on a shaker, then washed 3× with 150 μL of water. 100 μL/well 10× diluted SuperSignal HRP substrate (from Pierce) was added and after 5 min incubation the chemiluminescent signal was captured by a Labsystems LuminoSkan luminometer. The point of 50% inhibition of IRAK-1 or IRAK-4 enzyme activity (IC50) was determined (see Table 1).

[2] = target: T2, IRAK-1 (Homo sapiens, UniProt P51617); assay: Enzymatic inhibition assay, IRAK-1 kinase activity (chemiluminescent ELISA); assay type: biochemical
T2 construct: Recombinant, full-length IRAK-1 or IRAK-4 enzyme (baculovirus expression system) was added; Flag (N); made in house
T2 sequence (P51617 whole entry): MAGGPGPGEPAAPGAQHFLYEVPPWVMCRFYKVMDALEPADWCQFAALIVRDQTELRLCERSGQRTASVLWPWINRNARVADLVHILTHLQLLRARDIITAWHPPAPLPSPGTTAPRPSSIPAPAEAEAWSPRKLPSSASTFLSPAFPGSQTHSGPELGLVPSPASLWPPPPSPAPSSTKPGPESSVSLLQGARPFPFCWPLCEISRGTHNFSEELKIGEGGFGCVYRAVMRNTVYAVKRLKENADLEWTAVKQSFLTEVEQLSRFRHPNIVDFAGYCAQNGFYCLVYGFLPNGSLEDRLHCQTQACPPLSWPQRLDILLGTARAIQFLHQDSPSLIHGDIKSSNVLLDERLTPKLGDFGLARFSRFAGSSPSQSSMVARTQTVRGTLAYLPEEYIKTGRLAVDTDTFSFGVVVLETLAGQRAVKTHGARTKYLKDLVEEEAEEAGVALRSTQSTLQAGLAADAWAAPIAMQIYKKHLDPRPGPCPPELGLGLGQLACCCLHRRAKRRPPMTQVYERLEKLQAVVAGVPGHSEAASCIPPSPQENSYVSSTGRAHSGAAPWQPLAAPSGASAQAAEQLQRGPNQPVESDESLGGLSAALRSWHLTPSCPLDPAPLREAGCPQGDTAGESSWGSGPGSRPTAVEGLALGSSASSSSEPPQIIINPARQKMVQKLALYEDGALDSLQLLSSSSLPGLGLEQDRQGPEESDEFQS
Procedure: Enzymatic inhibition assay.
as §1
as §2, with “luminometer.” for “luminometer. The point of 50% inhibition of IRAK-1 or IRAK-4 enzyme activity (IC50) was determined (see Table 1).”

[3] = recombinant full-length IRAK-4, 10 μM ATP, 60 min room temperature, read-out: IC50 values (μM) IRAK-4
[4] = recombinant full-length IRAK-1, 3 μM ATP, 60 min room temperature, read-out: IC50 values (μM) IRAK-1

Row | SMILES | IC50 [1, 3] [µM] | IC50 [2] [µM] | IC50 [1] [µM] | IC50 [2, 4] [µM]
1 | O=C(Nc1nc2cc(F)c(F)cc2n1CCN1CCOCC1)c1cccc([N+](=O)[O-])c1 [Compound 4, 3-nitro-N-(1-(2-morpholin-4-yl-ethyl)-5,6-difluoro-1H-benzoimidazol-2-yl)-benzamide] | < 10 | < 10 |  | 
2 | CC(C)(C)C(=O)Oc1ccc2c(c1)nc(NC(=O)c1cccc([N+](=O)[O-])c1)n2CCCO [Compound 15a, 3-nitro-N-(1-hydroxypropyl-5-(2′,2′-dimethylpropionyl)-1H-benzoimidazol-2-yl)-benzamide] |  |  | < 10 | 
3 | COC(=O)CCCn1c(NC(=O)c2cccc([N+](=O)[O-])c2)nc2ccccc21 [Compound 5, 3-nitro-N-(1-(3-carboxymethylpropyl)-1H-benzoimidazol-2-yl)-benzamide] | < 10 | < 10 |  | 
4 | Cc1cc2nc(NC(=O)c3cccc([N+](=O)[O-])c3)[nH]c2cc1C [Compound 2, 3-nitro-N-(5,6-dimethyl-1H-benzoimidazol-2-yl)-benzamide] |  |  | < 10 | 10 to 30
5 | O=C(Nc1nc2ccccc2n1CCN1CCOCC1)c1cccs1 [Compound 14, N-(1-(2-morpholin-4-yl-ethyl)-1H-benzoimidazol-2-yl)-2-thiophenecarboxamide] | 10 to 30 | 10 to 30 |  | 
6 | O=C(Nc1nc2cc(F)ccc2n1[C@H]1CC[C@H](O)CC1)c1cccc([N+](=O)[O-])c1 [Compound 16, 3-nitro-N-(1-(trans-4-cyclohexanol-1-yl)-5-fluoro-1H-benzoimidazol-2-yl)-benzamide] | < 10 |  |  | < 10
7 | CCn1c(NC(=O)c2ccc(OC)cc2)nc2ccccc21 [Compound 8, 4-methoxy-N-(1-ethyl-1H-benzoimidazol-2-yl)-benzamide] | 10 to 30 | 10 to 30 |  | 
8 | CS(=O)(=O)c1cccc(C(=O)Nc2nc3ccccc3n2CCN2CCOCC2)c1 [Compound 12, 3-methanesulfonyl-N-(1-(2-morpholin-4-yl-ethyl)-1H-benzoimidazol-2-yl)-benzamide] | < 10 | < 10 |  | 
9 | O=C(Nc1nc2ccccc2n1CCO)c1cccc(Cl)c1 [Compound 9, 3-chloro-N-(1-hydroxyethyl-1H-benzoimidazol-2-yl)-benzamide] | < 10 | < 10 |  | 
10 | O=[N+]([O-])c1cccc(CNc2nc3ccccc3[nH]2)c1 [Compound 17] | 10 to 30 |  |  | 10 to 30
11 | O=C(Nc1nc2ccccc2n1CCO)c1ccc(Cl)c(Cl)c1 [Compound 10, 3,4-dichloro-N-(1-hydroxyethyl-1H-benzoimidazol-2-yl)-benzamide] | < 10 | 10 to 30 |  | 
12 | COC(=O)c1cccc(C(=O)Nc2nc3ccccc3n2CCN2CCOCC2)c1 [Compound 11, 3-carboxymethyl-N-(1-(2-morpholin-4-yl-ethyl)-1H-benzoimidazol-2-yl)-benzamide] | < 10 | < 10 |  | 
13 | O=C(Nc1nc2ccccc2n1CCN1CCOCC1)c1cccc([N+](=O)[O-])c1 [Compound 3, 3-nitro-N-(1-(2-morpholin-4-yl-ethyl)-1H-benzoimidazol-2-yl)-benzamide] |  |  | < 10 | < 10
14 | O=C(Nc1nc2ccccc2[nH]1)c1cccc([N+](=O)[O-])c1 [Compound 1, 3-nitro-N-(1H-benzoimidazol-2-yl)-benzamide] |  |  | < 10 | < 10
15 | CCOC(=O)Cn1c(NC(=O)c2cccc([N+](=O)[O-])c2)nc2cc(F)c(F)cc21 [Compound 6, 3-nitro-N-(1-(ethylacet-2-yl)-5,6-difluoro-1H-benzoimidazol-2-yl)-benzamide] | < 10 | 10 to 30 |  | 
16 | COC(=O)c1ccc2c(c1)nc(NC(=O)c1cccc([N+](=O)[O-])c1)n2CCO [Compound 7a, 3-nitro-N-(1-hydroxyethyl-5-carboxymethyl-1H-benzoimidazol-2-yl)-benzamide] | < 10 | < 10 |  | 
17 | O=C(Nc1nc2ccccc2n1CCN1CCOCC1)c1ccc([N+](=O)[O-])o1 [Compound 13, 5-nitro-N-(1-(2-morpholin-4-yl-ethyl)-1H-benzoimidazol-2-yl)-2-furamide] | < 10 | < 10 |  | 
